Measurements published in patent US10131652B2, “Pyrimidinyloxy benzene derivatives as herbicides” (E. I. DU PONT DE NEMOURS AND COMPANY, priority 2014, dated 2018).
Read-outs that look alike come from different tables or passages of the source.

Assays:
Type in all cases: in vivo
[1] = tested on: barnyardgrass (Echinochloa crus-galli); test: Test C flooded paddy test plant response; conditions: Echinochloa crus-galli; Flood, 250 g ai/ha; scale of 0 to 100 where 0 is no effect and 100 is complete control; 13 to 15 days; read-out: Barnyardgrass plant response rating
Method in brief: (§1)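 Plants grown to the 2-leaf stage; pots flooded to 3 cm above soil, test compounds applied directly to paddy water, depth maintained throughout. Greenhouse for 13 to 15 days, then visual rating versus controls on a 0–100 scale (0 no effect, 100 complete control).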

[2] = tested on: small-flower umbrella sedge (Cyperus difformis); test: Test C flooded paddy test plant response; conditions: Cyperus difformis; Flood, 250 g ai/ha; scale of 0 to 100 where 0 is no effect and 100 is complete control; 13 to 15 days; read-out: Sedge, Umbrella plant response rating
Method in brief: as §1

[3] = tested on: ducksalad (Heteranthera limosa); test: Test C flooded paddy test plant response; conditions: Heteranthera limosa; Flood, 250 g ai/ha; scale of 0 to 100 where 0 is no effect and 100 is complete control; 13 to 15 days; read-out: Ducksalad plant response rating
Method in brief: as §1

[4] = tested on: rice (Oryza sativa); test: Test C flooded paddy test plant response; conditions: Oryza sativa; Flood, 250 g ai/ha; scale of 0 to 100 where 0 is no effect and 100 is complete control; 13 to 15 days; read-out: Rice plant response rating
Method in brief: as §1

[5] = tested on: winter wheat (Triticum aestivum); test: Test D pre-/postemergence plant response; conditions: Triticum aestivum; for plant injury at 31 g/ha: 31 g ai/ha; for plant injury at 62 g/ha: 62 g ai/ha; for plant injury at 125 g/ha: 125 g ai/ha
Method in brief: (§2)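 Ratings were visual, 0 = no effect to 100 = complete control, taken against untreated controls after 13 to 15 days in a greenhouse. Chemicals, formulated in non-phytotoxic surfactant-containing solvent, went onto soil (loam/sand) at planting for preemergence, or onto 1- to 4-leaf plants (2–18 cm) for postemergence.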

[6] = tested on: johnsongrass (Sorghum halepense); test: Test D pre-/postemergence plant response; conditions: Sorghum halepense; for pest or weed control at 31 g/ha: 31 g ai/ha; for pest or weed control at 62 g/ha: 62 g ai/ha; for pest or weed control at 125 g/ha: 125 g ai/ha
Method in brief: as §2

[7] = tested on: galium (catchweed bedstraw, Galium aparine); test: Test D pre-/postemergence plant response; conditions: Galium; for pest or weed control at 31 g/ha: 31 g ai/ha; for pest or weed control at 62 g/ha: 62 g ai/ha; for pest or weed control at 125 g/ha: 125 g ai/ha
Method in brief: as §2

[8] = tested on: oilseed rape (Brassica napus); test: Test D pre-/postemergence plant response; conditions: Brassica napus; for plant injury at 31 g/ha: 31 g ai/ha
Method in brief: as §2

[9] = post-emergence, Postemergence, scale 0 to 100, 0 no effect, 100 complete control, read-out: Plant response rating, Wheat
[10] = pre-emergence, Preemergence, scale 0 to 100 (0 no effect, 100 complete control), read-out: Plant response rating, Wheat
[11] = post-emergence, Postemergence, scale 0 to 100, 0 no effect, 100 complete control, read-out: Plant response rating, Johnsongrass
[12] = pre-emergence, Preemergence, scale 0 to 100 (0 no effect, 100 complete control), read-out: Plant response rating, Johnsongrass
[13] = post-emergence, Postemergence, scale 0 to 100, 0 no effect, 100 complete control, read-out: Plant response rating, Galium
[14] = pre-emergence, Preemergence, scale 0 to 100 (0 no effect, 100 complete control), read-out: Plant response rating, Galium

Fc1cccc(Oc2ncc(Cl)cn2)c1-c1cc(C(F)F)no1 [Compound 144, 5-chloro-2-[2-[3-(difluoromethyl)-5-isoxazolyl]-3-fluorophenoxy]pyrimidine]
pest or weed control at 250 g/ha [1]: 98%
pest or weed control at 250 g/ha [2]: 85%
pest or weed control at 250 g/ha [3]: 90%
plant injury at 250 g/ha [4]: 40%
plant injury at 31 g/ha ([5]; post-emergence, Postemergence, scale 0 to 100 (0 no effect, 100 complete control), read-out: Wheat plant response rating): 10%
plant injury at 62 g/ha [5, 9]: 10%
plant injury at 125 g/ha [5, 9]: 10%
plant injury at 125 g/ha ([5]; pre-emergence, Preemergence, read-out: Plant response rating (scale 0 to 100), Wheat): 25%
plant injury at 16 g/ha ([5]; pre-emergence, Preemergence, 16 g ai/ha, scale 0 to 100 (0 no effect, 100 complete control), read-out: Plant response rating, Wheat): 0%
plant injury at 31 g/ha [5, 10]: 5%
plant injury at 62 g/ha [5, 10]: 25%
pest or weed control at 31 g/ha ([6]; post-emergence, Postemergence, scale 0 to 100 (0 no effect, 100 complete control), read-out: Johnsongrass plant response rating): 10%
pest or weed control at 62 g/ha [6, 11]: 10%
pest or weed control at 125 g/ha [6, 11]: 50%
pest or weed control at 125 g/ha ([6]; pre-emergence, Preemergence, read-out: Plant response rating (scale 0 to 100), Johnsongrass): 100%
pest or weed control at 16 g/ha ([6]; pre-emergence, Preemergence, 16 g ai/ha, scale 0 to 100 (0 no effect, 100 complete control), read-out: Plant response rating, Johnsongrass): 20%
pest or weed control at 31 g/ha [6, 12]: 75%
pest or weed control at 62 g/ha [6, 12]: 100%
pest or weed control at 31 g/ha ([7]; post-emergence, Postemergence, scale 0 to 100 (0 no effect, 100 complete control), read-out: Galium plant response rating): 85%
pest or weed control at 62 g/ha [7, 13]: 90%
pest or weed control at 125 g/ha [7, 13]: 95%
pest or weed control at 125 g/ha ([7]; pre-emergence, Preemergence, read-out: Plant response rating (scale 0 to 100), Galium): 98%
pest or weed control at 16 g/ha ([7]; pre-emergence, Preemergence, 16 g ai/ha, scale 0 to 100 (0 no effect, 100 complete control), read-out: Plant response rating, Galium): 95%
pest or weed control at 31 g/ha [7, 14]: 98%
pest or weed control at 62 g/ha [7, 14]: 98%
plant injury at 31 g/ha ([8]; post-emergence, Postemergence, scale 0 to 100 (0 no effect, 100 complete control), read-out: Oilseed Rape plant response rating): 80%
plant injury at 62 g/ha ([8]; post-emergence, Postemergence, 62 g ai/ha, scale 0 to 100, 0 no effect, 100 complete control, read-out: Plant response rating, Oilseed Rape): 95%
plant injury at 125 g/ha ([8]; pre-emergence, Preemergence, 125 g ai/ha, read-out: Plant response rating (scale 0 to 100), Oilseed Rape): 100%
plant injury at 16 g/ha ([8]; pre-emergence, Preemergence, 16 g ai/ha, scale 0 to 100 (0 no effect, 100 complete control), read-out: Plant response rating, Oilseed Rape): 98%
plant injury at 31 g/ha ([8]; pre-emergence, Preemergence, scale 0 to 100 (0 no effect, 100 complete control), read-out: Plant response rating, Oilseed Rape): 100%
